Experimental data from ChEMBL document CHEMBL1155968, “Synthesis, anticonvulsant and CNS depressant activity of some new bioactive 1-(4-substituted-phenyl)-3-(4-oxo-2-phenyl/ethyl-4H-quinazolin-3-yl)-urea” (Eur J Med Chem, 2009).
Activity calls are given as the source filed them. The rule behind the calls is not given here.

Tests used:
[1] = tested on: Mus musculus; experiment: Anticonvulsant activity in ip dosed albino mouse assessed as inhibition of maximal electric shock-induced seizures after 0.5 hrs; assay type: functional
[2] = tested on: Mus musculus; experiment: Anticonvulsant activity in ip dosed albino mouse assessed as inhibition of maximal electric shock-induced seizures after 4 hrs; assay type: functional
[3] = tested on: Mus musculus; experiment: Anticonvulsant activity in ip dosed albino mouse assessed as inhibition of subcutaneous pentylenetetrazole-induced seizure after 0.5 hrs; assay type: functional
[4] = tested on: Mus musculus; experiment: Neurotoxicity in ip dosed albino mouse assessed as minimal motor impairment after 0.5 hrs by rotarod test; assay type: toxicity, organism-based; conditions: in vivo
[5] = tested on: Mus musculus; experiment: Neurotoxicity in ip dosed albino mouse assessed as minimal motor impairment after 4 hrs by rotarod test; assay type: toxicity, organism-based; conditions: in vivo
[6] = tested on: Mus musculus; experiment: Behavioral activity in albino mouse assessed as decrease in locomotor activity at 100 mg/kg, ip by actophotometer; assay type: functional; conditions: route intraperitoneal
[7] = tested on: Rattus norvegicus; experiment: Antidepressant activity in Wistar rat assessed as increase in immobility time at 100 mg/kg, ip after 60 min by forced swim pool method; assay type: functional; conditions: route intraperitoneal
[8] = tested on: Mus musculus; experiment: Anticonvulsant activity in ip dosed albino mouse assessed as inhibition of subcutaneous pentylenetetrazole-induced seizure after 4 hrs; assay type: functional
[9] = tested on: Rattus norvegicus; experiment: Antidepressant activity against Wistar rat assessed as increase in immobility time at 30 mg/kg, ip after 60 mins by forced swim pool method; assay type: functional; conditions: route intraperitoneal

SMILES: CCc1nc2ccccc2c(=O)n1NC(=O)Nc1cccc(C)c1
- Activity [1]: inactive
- Activity [2]: inactive
- Activity [3]: inactive
- Activity [4]: Not Active
- Activity [5]: Not Active
- inhibition in vivo at 100 mg/kg [6]: 53%
- Time [7]: 165.63 s
- Activity [8]: inactive

SMILES: Cc1ccccc1NC(=O)Nn1c(-c2ccccc2)nc2ccccc2c1=O
- Activity [1]: inactive
- Activity [2]: inactive
- Activity [3]: inactive
- Activity [4]: Not Active
- Activity [5]: Not Active
- inhibition in vivo at 100 mg/kg [6]: 59%
- Time [7]: 162.13 s
- Activity [8]: inactive

SMILES: CCC1(c2ccccc2)C(=O)NC(=O)NC1=O [PHENOBARBITAL]
- Activity [1]: inactive
- Activity [2]: inactive
- Activity [3]: 300 mg/kg
- Activity [4]: Not Active
- Activity [5]: Not Active
- Activity [8]: inactive

SMILES: CCc1nc2ccccc2c(=O)n1NC(=O)Nc1ccc(Br)cc1
- Activity [1]: inactive
- Activity [2]: inactive
- Activity [4]: 300 mg/kg
- Activity [5]: Not Active
- inhibition in vivo at 100 mg/kg [6]: 54%
- Time [7]: 222.2 s

SMILES: O=C(Nc1ccc(I)cc1)Nn1c(-c2ccccc2)nc2ccccc2c1=O
- Activity [1]: inactive
- Activity [2]: inactive
- Activity [4]: 300 mg/kg
- Activity [5]: Not Active
- inhibition in vivo at 100 mg/kg [6]: 60%
- Time [7]: 181.15 s

SMILES: CCc1ccc(NC(=O)Nn2c(CC)nc3ccccc3c2=O)cc1
- Activity [1]: inactive
- Activity [2]: inactive
- Activity [3]: inactive
- Activity [4]: Not Active
- Activity [5]: Not Active
- inhibition in vivo at 100 mg/kg [6]: 58%
- Time [7]: 227.54 s
- Activity [8]: inactive

SMILES: COc1ccc(NC(=O)Nn2c(-c3ccccc3)nc3ccccc3c2=O)cc1
- Activity [1]: inactive
- Activity [2]: inactive
- Activity [3]: 300 mg/kg
- Activity [4]: 300 mg/kg
- Activity [5]: Not Active
- inhibition in vivo at 100 mg/kg [6]: 52%
- Time [7]: 229.15 s
- Activity [8]: inactive

SMILES: O=C(Nc1ccc(Br)cc1)Nn1c(-c2ccccc2)nc2ccccc2c1=O
- Activity [1]: 100 mg/kg
- Activity [2]: 300 mg/kg
- Activity [3]: 300 mg/kg
- Activity [4]: 300 mg/kg
- Activity [5]: Not Active
- inhibition in vivo at 100 mg/kg [6]: 58%
- Time [7]: 228.53 s
- Activity [8]: inactive

SMILES: CCCC(CCC)C(=O)[O-].[Na+] [VALPROATE SODIUM]
- Activity [1]: 100 mg/kg
- Activity [2]: 30 mg/kg
- Activity [3]: 30 mg/kg
- Activity [4]: 100 mg/kg
- Activity [5]: 300 mg/kg
- Activity [8]: 300 mg/kg

SMILES: CCOc1ccc(NC(=O)Nn2c(CC)nc3ccccc3c2=O)cc1
- Activity [1]: 300 mg/kg
- Activity [2]: inactive
- Activity [3]: inactive
- Activity [4]: 300 mg/kg
- Activity [5]: 300 mg/kg
- inhibition in vivo at 100 mg/kg [6]: 50%
- Time [7]: 161.43 s
- Activity [8]: inactive

SMILES: NC(=O)N1c2ccccc2C=Cc2ccccc21 [CARBAMAZEPINE]
- Activity [1]: inactive
- Activity [2]: inactive
- Activity [3]: 300 mg/kg
- Activity [4]: Not Active
- Activity [5]: Not Active
- Time [9]: 168.32 s
- Activity [8]: inactive

SMILES: CCOc1ccc(NC(=O)Nn2c(-c3ccccc3)nc3ccccc3c2=O)cc1
- Activity [1]: inactive
- Activity [2]: inactive
- Activity [3]: inactive
- Activity [4]: 100 mg/kg
- Activity [5]: Not Active
- inhibition in vivo at 100 mg/kg [6]: 53%
- Time [7]: 273.22 s
- Activity [8]: inactive

SMILES: CCc1ccc(NC(=O)Nn2c(-c3ccccc3)nc3ccccc3c2=O)cc1
- Activity [1]: inactive
- Activity [2]: inactive
- Activity [3]: inactive
- Activity [4]: Not Active
- Activity [5]: Not Active
- inhibition in vivo at 100 mg/kg [6]: 61%
- Time [7]: 213.13 s
- Activity [8]: inactive

SMILES: CCc1nc2ccccc2c(=O)n1NC(=O)Nc1ccc(I)cc1
- Activity [1]: inactive
- Activity [2]: inactive
- Activity [4]: Not Active
- Activity [5]: Not Active
- inhibition in vivo at 100 mg/kg [6]: 55%
- Time [7]: 274.4 s
- Activity [8]: inactive

SMILES: CCc1nc2ccccc2c(=O)n1NC(=O)Nc1ccc(F)cc1
- Activity [1]: inactive
- Activity [2]: inactive
- Activity [3]: inactive
- Activity [4]: Not Active
- Activity [5]: Not Active
- inhibition in vivo at 100 mg/kg [6]: 51%
- Time [7]: 248.32 s
- Activity [8]: inactive

SMILES: CCc1nc2ccccc2c(=O)n1NC(=O)Nc1ccc(Cl)cc1
- Activity [1]: inactive
- Activity [2]: inactive
- Activity [3]: inactive
- Activity [4]: Not Active
- inhibition in vivo at 100 mg/kg [6]: 52%
- Time [7]: 180.3 s
- Activity [8]: inactive

SMILES: CCc1nc2ccccc2c(=O)n1NC(=O)Nc1ccc(C)cc1
- Activity [1]: 100 mg/kg
- Activity [2]: 300 mg/kg
- Activity [3]: inactive
- Activity [4]: 300 mg/kg
- Activity [5]: Not Active
- inhibition in vivo at 100 mg/kg [6]: 55%
- Time [7]: 243.42 s
- Activity [8]: inactive

SMILES: CCc1nc2ccccc2c(=O)n1NC(=O)Nc1ccccc1C
- Activity [1]: inactive
- Activity [2]: inactive
- Activity [3]: inactive
- Activity [4]: Not Active
- Activity [5]: Not Active
- inhibition in vivo at 100 mg/kg [6]: 54%
- Time [7]: 186.3 s
- Activity [8]: inactive

SMILES: O=C1NC(=O)C(c2ccccc2)(c2ccccc2)N1 [PHENYTOIN]
- Activity [1]: 30 mg/kg
- Activity [2]: 100 mg/kg
- Activity [3]: 100 mg/kg
- Activity [4]: 100 mg/kg
- Activity [5]: 300 mg/kg
- inhibition in vivo at 100 mg/kg [6]: 69%
- Activity [8]: 300 mg/kg

SMILES: CCc1nc2ccccc2c(=O)n1NC(=O)Nc1ccccc1
- Activity [1]: 100 mg/kg
- Activity [2]: inactive
- Activity [3]: 300 mg/kg
- Activity [4]: 300 mg/kg
- inhibition in vivo at 100 mg/kg [6]: 54%
- Time [7]: 170.1 s
- Activity [8]: inactive

SMILES: Cc1cccc(NC(=O)Nn2c(-c3ccccc3)nc3ccccc3c2=O)c1
- Activity [1]: inactive
- Activity [2]: inactive
- Activity [3]: inactive
- Activity [4]: Not Active
- Activity [5]: Not Active
- inhibition in vivo at 100 mg/kg [6]: 59%
- Time [7]: 171.24 s
- Activity [8]: inactive

SMILES: O=C(Nc1ccc(Cl)cc1)Nn1c(-c2ccccc2)nc2ccccc2c1=O
- Activity [1]: 300 mg/kg
- Activity [2]: inactive
- Activity [3]: 300 mg/kg
- Activity [4]: 300 mg/kg
- Activity [5]: Not Active
- inhibition in vivo at 100 mg/kg [6]: 55%
- Time [7]: 218.5 s
- Activity [8]: inactive

SMILES: CCc1nc2ccccc2c(=O)n1NC(=O)Nc1ccc(OC)cc1
- Activity [1]: inactive
- Activity [2]: inactive
- Activity [3]: inactive
- Activity [4]: 300 mg/kg
- inhibition in vivo at 100 mg/kg [6]: 48%
- Time [7]: 141.17 s
- Activity [8]: inactive

SMILES: O=C(Nc1ccc(F)cc1)Nn1c(-c2ccccc2)nc2ccccc2c1=O
- Activity [1]: inactive
- Activity [2]: inactive
- Activity [3]: inactive
- Activity [4]: Not Active
- Activity [5]: Not Active
- inhibition in vivo at 100 mg/kg [6]: 54%
- Time [7]: 211.14 s
- Activity [8]: inactive

SMILES: CCc1nc2ccccc2c(=O)n1NC(=O)Nc1ccc([N+](=O)[O-])cc1
- Activity [1]: 300 mg/kg
- Activity [2]: inactive
- Activity [3]: inactive
- Activity [4]: 100 mg/kg
- Activity [5]: Not Active
- inhibition in vivo at 100 mg/kg [6]: 41%
- Time [7]: 212.72 s
- Activity [8]: inactive

SMILES: Cc1ccc(NC(=O)Nn2c(-c3ccccc3)nc3ccccc3c2=O)cc1
- Activity [1]: inactive
- Activity [2]: inactive
- Activity [3]: inactive
- Activity [4]: 300 mg/kg
- Activity [5]: Not Active
- inhibition in vivo at 100 mg/kg [6]: 54%
- Time [7]: 205.22 s
- Activity [8]: inactive

SMILES: O=C(Nc1ccc([N+](=O)[O-])cc1)Nn1c(-c2ccccc2)nc2ccccc2c1=O
- Activity [1]: 300 mg/kg
- Activity [2]: inactive
- Activity [3]: 300 mg/kg
- Activity [4]: 300 mg/kg
- Activity [5]: Not Active
- inhibition in vivo at 100 mg/kg [6]: 42%
- Time [7]: 199.19 s
- Activity [8]: inactive

SMILES: O=C(Nc1ccccc1)Nn1c(-c2ccccc2)nc2ccccc2c1=O
- Activity [1]: inactive
- Activity [2]: inactive
- Activity [3]: inactive
- Activity [4]: 300 mg/kg
- Activity [5]: Not Active
- inhibition in vivo at 100 mg/kg [6]: 56%
- Time [7]: 186.46 s
- Activity [8]: inactive
